From paper PMC8534003, “The Chemokine-Based Peptide, CXCL9(74-103), Inhibits Angiogenesis by Blocking Heparan Sulfate Proteoglycan-Mediated Signaling of Multiple Endothelial Growth Factors” (Cancers, 2021)

How the values were obtained:
[1] = system: heparan sulfate (HS) / VEGF165; assay: ELISA-like GAG binding assay, competition with VEGF165 for HS binding; set-up: species or system human; details: HS 25 µg/mL, pH 7.2, 37 °C, 2 h, n = 5
Procedure: The ability of the CXCL9-derived peptides to compete with VEGF165 for HS binding was assessed in an ELISA-like GAG binding assay. First, the GAG binding plates (Galen Laboratory Supplies, North Haven, CT, USA) were coated with 25 µg/mL HS (Iduron, Alderley Edge, UK) in standard assay buffer (SAB) [100 mM NaCl, 50 mM sodium acetate, 0.2% (v/v) Tween® 20 in ultrapure water, pH 7.2] at room temperature overnight. The plates were washed with SAB and blocked with blocking buffer [SAB supplemented with 0.2% (w/v) gelatin] at 37 °C for 1 h to prevent nonspecific binding. Then, dilutions of VEGF165 and the peptides, CXCL9(74-103) or CXCL9(86-103), were added and allowed to interact at 37 °C for 2 h. Unbound material was removed through washing and biotinylated polyclonal goat anti-human VEGF165 antibody (PeproTech) in blocking buffer was added to interact with HS-bound VEGF165 at 37 °C for 1 h. Following additional washing steps, detection was performed with streptavidin-horseradish peroxidase (HRP) (R&D Systems) in blocking buffer at 37 °C for 30 min and conversion of 3,3’,5,5’-tetramethylbenzidine (TMB) to a colorimetric signal in the presence of 0.015% (v/v) H2O2. The reaction was stopped by the addition of H2SO4 and the absorbance was measured at 450 nm. All incubation steps were performed in the dark.

HMVEC spheroids = assay: Spheroid sprouting assay; type: cell-based, human; details: FGF-2 10 ng/mL, peptide 3 µM, 16 hours; n = 5 experiments
Procedure: A 1:5 mixture of endothelial cells (4 × 10^4 cells/mL) and methylcellulose (Sigma-Aldrich, Saint Louis, MO, USA; 12 mg/mL in EBM™-2 basal medium) in EBM™-2 cell culture medium was prepared. Drops of 1 × 10^3 HMVECs were plated on a petri dish and allowed to form single spheroids in hanging droplets at 37 °C, 5% CO2 for 24 h. Spheroids were collected, sedimented by centrifugation and resuspended in a mixture of 24 mg/mL methylcellulose in basal EBM™-2, 1 mg/mL collagen type I (BD Biosciences, San Jose, CA, USA), 2.5 mg/mL NaHCO3 and 10 mM NaOH. The suspension was plated in a 96-well plate and the collagen was allowed to polymerize at 37 °C, 5% CO2 for 30 min. Spheroids were left untreated or stimulated with 0.3 or 3 µM of CXCL9(74-103) or 3 µM of CXCL9(86-103) for 15 min prior to addition of 10 ng/mL FGF-2 or 10 ng/mL EGF in EBM™-2 + 3% (v/v) FCS. In some experiments, HMVECs were pretreated with heparinase II (vide infra). After 16 hours, spheroid sprouting was assessed with an inverted Axiovert 200M microscope (Zeiss, Germany) through a 10× objective. The average number of sprouts was calculated and the average sprout length per spheroid was measured using Fiji software.
Sprouting experiments examining the dependency on HS binding for the inhibitory action of CXCL9(74-103) were performed as described above (vide supra). […]

[2] = system: FGF-2-induced angiogenesis, C57BL/6 mice; assay: In vivo angiogenesis Matrigel plug assay; set-up: species or system mouse; details: data not shown
Procedure: Six-to-eight-week-old female C57BL/6 mice were anesthetized with a mixture of 2.5 mg/mL xylazine (V.M.D, Inovet, Arendonk, Belgium) and 37.5 mg/mL ketamine (Dechra, Northwich, UK) in PBS by i.p. injection. A vertical dorsal incision was made and an ALZET osmotic pump (model 1007D, DURECT Corporation, Cupertine, CA, USA) filled with 400 µg/100 µL CXCL9(74-103) or 100 µL PBS was subcutaneously (s.c.) implanted. The incision was closed with a surgical suture. Growth factor-reduced Matrigel (Corning Matrigel Growth Factor (GFR) Basement Membrane Matrix, Phenol Red-Free, LDEV-Free; Corning Life Sciences, Amsterdam, The Netherlands) was s.c. injected in the dorsal flank forming a firm plug (600 µL/plug). The Matrigel was either injected as such (control plugs) or supplemented with 300 µg CXCL9(74-103) and/or 180 ng FGF-2. Seven days later, the mice were sacrificed. Thirty minutes before sacrifice, the mice were i.v. injected with 200 µL (25 mg/kg) FITC-labeled 2000 kDa dextran (Sigma-Aldrich) to quantify vessel formation in the Matrigel plugs. Blood was collected through cardiac puncture into heparinized tubes containing 20 µL heparin (5.000 IE/mL, Leo Pharma, Ballerup, Denmark). The blood was centrifuged at 200 g and 4 °C for 10 min, whereafter the supernatant was centrifuged at 3000 g and 4 °C for 10 min. The collected plasma was stored away from light at 4 °C until analysis. The Matrigel plugs were removed and enzymatically and mechanically digested in 1.2 mL dispase (Corning Life Sciences) using an incubation at 37 °C for 1.5 h and the gentleMACS™ Dissociator (Miltenyi Biotec, Bergisch Gladbach, Germany). The digested Matrigel plugs were filtered through a 70 µm cell strainer, washed with 1.5 mL FACS buffer [2% (v/v) FCS + 2 mM EDTA in PBS] and centrifuged at 300 g and 4 °C for 7 min. The supernatant (SN) was centrifuged again at 300 g and 4 °C for 7 min and the SN was retained away from light at 4 °C until analysis. The pellet was resuspended in 1 mL FACS buffer, the cells were counted and used for flow cytometry. The antibodies used to identify endothelial cells were anti-mouse CD45-APC (clone 30-F11, eBioscience, Thermo Fisher Scientific), anti-mouse CD146-PE (clone ME-9F1) and anti-mouse Pan-endothelial Cell Antigen-BV711 (clone MECA-32) antibodies (both BD Biosciences). Mice experiments were approved by the Ethical Committee of KU Leuven (project number P199/2018).

inhibition of VEGF165 binding to HS ([1]; 30-fold molar excess of peptide over VEGF165): ≈ 20%
inhibition of VEGF165 binding to HS ([1]; 300-fold molar excess of peptide over VEGF165): 40%
Sequence: KKVLKVRKSQRSRQKKTT [CXCL9(86-103)]
sprout outgrowth induced by FGF-2 (HMVEC spheroids): had no effect on sprout outgrowth induced by FGF-2
FGF-2-induced angiogenesis in the Matrigel plug assay [2]: no anti-angiogenic activity
